Assay results: paper PMC8851282, “Senolysis induced by 25-hydroxycholesterol targets CRYAB in multiple cell types” (iScience, 2022)

Key:
[1] = system: mouse dermal fibroblasts (mDFs); test: Cell viability assay of NS and SEN mouse dermal fibroblasts treated with CRYAB and HMOX1 inhibitors; format: cell-based; details: 250 nM Doxo-induced senescence; after 72 h of treatment; 25HC at five or 10 μM
Protocol: The average value of DMSO was set at 1. (B and D) Effects of CRYAB and HMOX1 inhibitors on DMSO-treated NS or Doxo-treated SEN cells; (B) mDFs, (D) IMR-90s. Cells were treated with the inhibitors at the indicated concentrations. Cell viability was measured after 72 h. (C) IMR-90 qRT-PCR. For qPCR: mean +/- SE, n =4, ∗p< 0.05, ∗∗p< 0.01, ∗∗∗p<0.001, ∗∗∗∗p<0.0001 by Dunnett’s multiple comparisons test vs DMSO. For cell viability assays: mean +/- SE, n =3, ∗∗p< 0.01, ∗∗∗p<0.001, ∗∗∗∗p<0.0001 vs 0 mM by student’s t test.
For skin sample collection, mice were euthanized, hair removed from dorsal skin and the area cleaned with alcohol. A small 1 cm x 1 cm region of skin was removed, and subcutaneous fat removed by scalpel. Skin was digested in 2–3 ml of 0.25% trypsin at 37 °C for 1 h. Hair and epidermis were further removed, and the dermis was minced into 2–3 mm pieces. Digestion of the sample in 5 ml of 1 mg/ml collagenase (Sigma, Cat#C5138) in HBSS (with Ca^++ and Mg^++) (Gibco, cat#24020117) was carried out at 37 °C on a shaker for 1 h. Collagenase digestion was stopped by addition of 10 ml 10% FBS DMEM. Filtration of the homogenate through a 70-micron mesh was performed to remove undigested tissue. Differential centrifugation and washing were performed at 1200 rpm for 5 min, and the pellet was resuspended in 10% FBS DMEM then seeded in a six-well plate. Media were changed at 5 days after seeding and then every 3 days.
All experiments were performed in incubators at 37 °C, 3% O2 and 5% CO2. Senescence was induced by treatment with either Doxo (250 nM for 24 h) ([Demaria et al., 2017]) or X-irradiation (10 Gy) ([Limbad et al., 2020]). For cell culture studies using 25HC, it was used at the indicated concentrations in the media.
Cell viability was assessed using a cell counting kit-8 from Dojindo Molecular Technologies, Inc (Cat CK04-20). Cells were incubated with culture media + 10% kit cell viability reagent, 150 μL/well in 96-well plates for 2 h. The supernatant was transferred to a new 96-well plate and absorbance read at 450 nm as recommended in the product datasheet.

[2] = system: human liver stellate cells (hLSCs); test: Cell viability assay of NS and Doxo- or IR-induced senescent hLSCs treated with 25HC; format: cell-based; details: 100 μM after 3 days; Doxo or IR induced senescence
Protocol: (§1) Figure 7 25HC treatment timeline and its effects on NS and SEN hCMECs, hLSCs, hRPTECs, and hACs All cell types were treated with either DMSO, 250 nM Doxo or 10-Gy IR at the times shown. 25HC treatment was started 24 h after Doxo or IR treatment. Cell viability was measured every 3–5 days for 15 days. Optimal treatment times for maximum senolysis are shown for each cell type: day 15 for hCMECs, day 3 for hLSCs, day 9 for hRPTECs and day 12 for hACs. For qRT-PCR: mean ± SE, n =4, ∗p< 0.05, ∗∗p< 0.01, ∗∗∗p<0.001, ∗∗∗∗p<0.0001 by Dunnett’s multiple comparisons test vs DMSO or NS, For cell viability assays: mean ± SE, n =3, ∗∗p< 0.01, ∗∗∗p<0.001, ∗∗∗∗p<0.0001 vs 0 mM by student’s t test.
All experiments were performed in incubators at 37 °C, 3% O2 and 5% CO2. Senescence was induced by treatment with either Doxo (250 nM for 24 h) ([Demaria et al., 2017]) or X-irradiation (10 Gy) ([Limbad et al., 2020]). […]
(§2) Cell viability was assessed using a cell counting kit-8 from Dojindo Molecular Technologies, Inc (Cat CK04-20). […] The supernatant was transferred to a new 96-well plate and absorbance read at 450 nm as recommended in the product datasheet. […]
Cells were treated with either DMSO or 250 nM Doxo for 24 h. […] Cell viability was measured every 3-–5 days until 15 days.
(b) 25HC effects on NS or IR-treated hLSCs at vari ous ti mes. […] Cell viability was measured every 3–5 days until 15 days. […]

[3] = system: human renal proximal tubule epithelial cells (hRPTECs); test: Cell viability assay of NS and Doxo- or IR-induced senescent hRPTECs treated with 25HC; format: cell-based; details: 5 μM after 9 days; Doxo or IR induced senescence
Protocol: as §1
All experiments were performed in incubators at 37 °C, 3% O2 and 5% CO2. […]
as §2
Supplementary Fig. 12 (related to Fig. 7) | 25HC treatment of human renal epithelial cells (a) 25HC effects on DMSO- or Doxo-treated hRPTECs at various times. […] Cel l vi abi l i ty was measured every 3–5 days until 15 days. […]
Cells were NS or treated with 10-Gy X-rays. […] Cell viability was measured every 3–5 days until 15 days. […]

gastrocnemius muscle = details: ip, 50 mg/kg, 120 h

C[C@H](CCCC(C)(C)O)[C@H]1CC[C@H]2[C@@H]3CC=C4C[C@@H](O)CC[C@]4(C)[C@H]3CC[C@]12C [25HC, 25-hydroxycholesterol]
senolysis in mDF cells [1]: induced significant senolysis
senolysis in hLSCs [2]: induced significant senolysis
senolysis in hRPTECs [3]: induced significant senolysis
muscle mass restored (gastrocnemius wet weight normalized to body weight) (gastrocnemius muscle): ~23%
